The values below come from ChEMBL document CHEMBL1201862, “PubChem BioAssay data set” (2004).

Active and inactive are the calls of the source. Some results are limits rather than exact numbers.

Test [1] concerns the target Procathepsin L (Homo sapiens, UniProt P07711). The test can be described thus: cathepsin L inhibitors, dose response, counter-screen for M1/M17 aminopeptidase inhibitor project, biochemical, QFRET, 1536-well (AID 2214).
Test [2] deals with T1, Leucine aminopeptidase (Plasmodium falciparum 3D7, UniProt Q8IL11).
T1 sequence (Q8IL11 whole entry): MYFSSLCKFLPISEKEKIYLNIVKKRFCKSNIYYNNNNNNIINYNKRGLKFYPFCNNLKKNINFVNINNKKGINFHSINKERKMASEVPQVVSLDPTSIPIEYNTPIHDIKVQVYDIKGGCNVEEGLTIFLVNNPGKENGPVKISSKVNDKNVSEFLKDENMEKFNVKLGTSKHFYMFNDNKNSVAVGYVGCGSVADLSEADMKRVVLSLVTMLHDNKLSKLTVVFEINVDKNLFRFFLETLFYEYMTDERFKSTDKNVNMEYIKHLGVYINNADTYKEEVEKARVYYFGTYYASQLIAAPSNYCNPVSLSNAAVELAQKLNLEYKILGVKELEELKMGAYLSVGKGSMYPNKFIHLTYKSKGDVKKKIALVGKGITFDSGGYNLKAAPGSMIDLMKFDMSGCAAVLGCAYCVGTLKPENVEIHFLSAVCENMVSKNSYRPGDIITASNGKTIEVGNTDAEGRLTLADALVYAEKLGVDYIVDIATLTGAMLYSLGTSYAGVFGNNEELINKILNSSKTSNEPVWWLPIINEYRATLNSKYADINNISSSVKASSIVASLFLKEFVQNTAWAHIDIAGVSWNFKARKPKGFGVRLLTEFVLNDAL
Put plainly: P. falciparum M17LAP inhibitors, primary screen, biochemical, fluorogenic H-Leu-NHMec substrate, 1536-well (AID 1619). It counts as functional.

In test [3] the target is T2, Aspartyl aminopeptidase (Plasmodium falciparum 3D7, UniProt Q8I2J3).
T2 sequence (Q8I2J3 whole entry): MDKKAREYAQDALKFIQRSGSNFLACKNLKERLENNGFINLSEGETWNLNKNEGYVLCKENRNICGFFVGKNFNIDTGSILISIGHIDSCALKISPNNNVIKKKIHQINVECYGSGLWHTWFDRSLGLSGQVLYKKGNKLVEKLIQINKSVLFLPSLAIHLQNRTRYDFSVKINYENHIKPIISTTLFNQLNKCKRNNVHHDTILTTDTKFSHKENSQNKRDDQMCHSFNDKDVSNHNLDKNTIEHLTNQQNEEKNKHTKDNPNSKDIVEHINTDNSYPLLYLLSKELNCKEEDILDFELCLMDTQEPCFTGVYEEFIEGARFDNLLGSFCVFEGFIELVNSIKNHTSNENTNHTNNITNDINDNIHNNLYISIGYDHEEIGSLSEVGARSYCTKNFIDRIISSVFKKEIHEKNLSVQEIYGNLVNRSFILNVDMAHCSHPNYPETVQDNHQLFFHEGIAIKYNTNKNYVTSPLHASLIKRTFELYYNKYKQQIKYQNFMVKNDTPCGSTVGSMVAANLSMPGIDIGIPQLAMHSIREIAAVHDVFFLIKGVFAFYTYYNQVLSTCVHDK
Put plainly: Counterscreen for inhibitors of M1 and M17 aminopeptidases: QFRET-based biochemical high throughput dose response assay for inhibitors of the Plasmodium falciparum M18 Aspartyl Aminopeptidase (PFM18AAP). [Related PubChem assays: 1619 (Screening assay (M17LAP inhibitors).), 1445 (Screening assay (M1AAP inhibitors).)].

Test [4] deals with T3, Cytochrome P450 2C19 (Homo sapiens, UniProt P33261). The test can be described thus: Cytochrome panel assay with activity outcomes. Panel member name: p450-cyp2c19 Compounds with AC50 equal or less than 10 uM are considered active. It counts as functional. Conditions: read-out: AC50.
T3 sequence (P33261 whole entry): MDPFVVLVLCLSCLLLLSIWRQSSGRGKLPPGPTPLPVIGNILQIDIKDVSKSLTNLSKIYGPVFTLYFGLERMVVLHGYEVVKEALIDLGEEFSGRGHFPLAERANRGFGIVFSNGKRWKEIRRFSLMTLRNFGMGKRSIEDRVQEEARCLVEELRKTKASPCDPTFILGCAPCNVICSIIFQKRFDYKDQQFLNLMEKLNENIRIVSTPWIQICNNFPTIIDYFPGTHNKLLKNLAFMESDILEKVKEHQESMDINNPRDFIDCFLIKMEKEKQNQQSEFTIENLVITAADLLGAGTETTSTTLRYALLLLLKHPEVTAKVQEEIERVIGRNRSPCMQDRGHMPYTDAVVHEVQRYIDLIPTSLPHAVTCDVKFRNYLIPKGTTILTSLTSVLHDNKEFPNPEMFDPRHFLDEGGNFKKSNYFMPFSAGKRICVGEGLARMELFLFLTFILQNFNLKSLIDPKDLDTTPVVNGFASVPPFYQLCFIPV
The target in test [5] is T3, Cytochrome P450 2C19. The test can be described thus: qHTS Assay for Inhibitors and Substrates of Cytochrome P450 2C19. [Related pubchem assays: 410 ]. Conditions: read-out: Potency. The class given is ADME.
In test [6] the test system is Vero. The test can be described thus: cells. The class given is functional, cell-based. Conditions: Chlorocebus sabaeus.
The target of test [7] is T4, Heat shock factor protein 1 (Mus musculus, UniProt P38532).
T4 sequence (P38532 whole entry): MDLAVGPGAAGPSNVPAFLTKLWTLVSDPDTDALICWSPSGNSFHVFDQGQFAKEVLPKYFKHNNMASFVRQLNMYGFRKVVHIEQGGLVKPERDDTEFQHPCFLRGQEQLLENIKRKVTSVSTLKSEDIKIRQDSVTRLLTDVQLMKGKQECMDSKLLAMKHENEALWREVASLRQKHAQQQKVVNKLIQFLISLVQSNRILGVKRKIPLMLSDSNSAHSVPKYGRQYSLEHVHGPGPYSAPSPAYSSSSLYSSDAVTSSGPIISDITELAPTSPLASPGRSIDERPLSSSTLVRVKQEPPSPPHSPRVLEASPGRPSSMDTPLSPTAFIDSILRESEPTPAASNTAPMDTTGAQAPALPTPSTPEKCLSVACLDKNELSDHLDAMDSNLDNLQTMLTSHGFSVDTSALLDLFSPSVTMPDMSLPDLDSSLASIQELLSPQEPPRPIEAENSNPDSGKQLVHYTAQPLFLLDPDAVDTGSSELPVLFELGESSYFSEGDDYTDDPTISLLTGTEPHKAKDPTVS
Put plainly: HSF1 potentiators in luciferase reporter cells, confirmation, cell-based, NIH3T3, luminescence, dose retest (AID 435004).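 Also: stress induced by proteasome inhibitor MG132 added 30 min after compound; luciferase reporter driven by HSF1 response element in NIH3T3 cells; actives raise luminescence as potentiators of the MG132 stress response.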 The class given is functional.

Test [8] relates to Vero. The test can be described thus: host cell cytotoxicity of antiviral hits, dose response, cytotoxicity control for West Nile virus antiviral project, secondary assay (AID 1650). Conditions: Chlorocebus sabaeus. It counts as functional.
Test [9] relates to Vero. Put plainly: cells. The class given is functional. Conditions: Chlorocebus sabaeus.
For test [10], the target named is T5, Replicative DNA helicase DnaB (Mycobacterium tuberculosis, UniProt P9WMR3).
T5 sequence (P9WMR3 whole entry): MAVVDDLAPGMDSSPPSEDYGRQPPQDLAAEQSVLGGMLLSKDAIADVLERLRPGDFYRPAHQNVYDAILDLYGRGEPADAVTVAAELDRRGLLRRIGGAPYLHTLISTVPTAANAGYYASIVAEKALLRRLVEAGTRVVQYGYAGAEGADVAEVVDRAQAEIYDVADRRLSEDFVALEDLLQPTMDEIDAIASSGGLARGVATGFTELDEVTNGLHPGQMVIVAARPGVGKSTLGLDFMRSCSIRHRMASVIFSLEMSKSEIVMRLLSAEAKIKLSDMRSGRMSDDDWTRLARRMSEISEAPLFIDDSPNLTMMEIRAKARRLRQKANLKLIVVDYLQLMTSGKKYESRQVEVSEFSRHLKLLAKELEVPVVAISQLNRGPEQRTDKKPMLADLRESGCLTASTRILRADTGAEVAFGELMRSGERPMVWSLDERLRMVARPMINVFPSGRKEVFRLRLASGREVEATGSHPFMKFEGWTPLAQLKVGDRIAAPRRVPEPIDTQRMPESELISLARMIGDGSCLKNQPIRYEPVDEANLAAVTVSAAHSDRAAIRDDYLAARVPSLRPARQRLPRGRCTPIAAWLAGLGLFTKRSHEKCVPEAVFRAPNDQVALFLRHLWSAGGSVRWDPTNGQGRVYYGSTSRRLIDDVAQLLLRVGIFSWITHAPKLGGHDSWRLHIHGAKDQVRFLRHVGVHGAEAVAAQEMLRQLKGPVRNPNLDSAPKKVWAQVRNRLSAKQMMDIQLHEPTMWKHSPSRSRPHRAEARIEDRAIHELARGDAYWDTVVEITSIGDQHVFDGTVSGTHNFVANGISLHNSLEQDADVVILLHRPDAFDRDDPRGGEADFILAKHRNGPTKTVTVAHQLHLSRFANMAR
The test can be described thus: DnaB intein splicing inhibitors, dose response, biochemical, cell-free fluorescence (AID 449749). The class given is functional.

Test [11] addresses T6, Protein RecA (Mycobacterium tuberculosis, UniProt P9WHJ3).
T6 sequence (P9WHJ3 whole entry): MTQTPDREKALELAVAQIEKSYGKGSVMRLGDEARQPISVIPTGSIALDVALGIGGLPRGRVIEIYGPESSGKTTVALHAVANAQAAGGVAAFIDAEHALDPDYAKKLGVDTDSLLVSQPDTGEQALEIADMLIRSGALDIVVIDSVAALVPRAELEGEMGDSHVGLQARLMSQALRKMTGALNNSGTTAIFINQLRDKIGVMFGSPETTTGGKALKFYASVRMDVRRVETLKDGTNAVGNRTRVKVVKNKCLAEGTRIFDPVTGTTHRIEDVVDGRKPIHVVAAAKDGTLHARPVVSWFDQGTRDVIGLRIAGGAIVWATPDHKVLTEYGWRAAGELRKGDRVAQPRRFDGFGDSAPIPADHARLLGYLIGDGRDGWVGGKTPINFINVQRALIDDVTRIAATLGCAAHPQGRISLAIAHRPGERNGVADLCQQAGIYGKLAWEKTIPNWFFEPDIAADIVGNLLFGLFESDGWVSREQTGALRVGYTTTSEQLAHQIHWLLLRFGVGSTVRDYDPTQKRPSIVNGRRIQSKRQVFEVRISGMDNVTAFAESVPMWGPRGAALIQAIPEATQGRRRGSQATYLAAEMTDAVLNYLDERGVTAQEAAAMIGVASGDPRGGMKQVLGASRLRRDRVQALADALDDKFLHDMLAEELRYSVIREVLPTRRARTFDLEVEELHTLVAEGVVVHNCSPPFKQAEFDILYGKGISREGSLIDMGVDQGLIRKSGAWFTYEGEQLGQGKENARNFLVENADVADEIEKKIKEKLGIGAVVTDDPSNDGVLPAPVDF
Put plainly: Fluorescence Cell-Free Homogeneous Dose Retest to Identify Inhibitors of RecA-Intein Splicing Activity. [Related pubchem assays (depositor defined):AID2097, AID2223, AID489010, AID492950]. It counts as functional.

Test [12] has as its target Cytochrome P450 2C9 (Homo sapiens, UniProt P11712). Conditions: Potency.
Test [13] concerns the target Cytochrome P450 2D6 (Homo sapiens, UniProt P10635). Put plainly: qHTS Assay for Inhibitors and Substrates of Cytochrome P450 2D6. [Related pubchem assays: 410 ]. Conditions: read-out: Potency. The class given is ADME.

Chain of Procathepsin L (P07711 whole entry): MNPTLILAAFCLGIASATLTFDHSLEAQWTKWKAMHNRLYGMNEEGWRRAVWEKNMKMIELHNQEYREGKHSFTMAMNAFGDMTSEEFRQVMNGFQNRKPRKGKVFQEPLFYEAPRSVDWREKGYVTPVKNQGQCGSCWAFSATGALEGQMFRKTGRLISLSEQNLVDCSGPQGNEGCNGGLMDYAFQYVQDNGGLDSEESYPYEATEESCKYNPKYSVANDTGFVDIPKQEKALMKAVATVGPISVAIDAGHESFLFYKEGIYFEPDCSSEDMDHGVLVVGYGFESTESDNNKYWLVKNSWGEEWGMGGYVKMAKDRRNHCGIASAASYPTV
Chain of Cytochrome P450 2C9 (P11712 whole entry): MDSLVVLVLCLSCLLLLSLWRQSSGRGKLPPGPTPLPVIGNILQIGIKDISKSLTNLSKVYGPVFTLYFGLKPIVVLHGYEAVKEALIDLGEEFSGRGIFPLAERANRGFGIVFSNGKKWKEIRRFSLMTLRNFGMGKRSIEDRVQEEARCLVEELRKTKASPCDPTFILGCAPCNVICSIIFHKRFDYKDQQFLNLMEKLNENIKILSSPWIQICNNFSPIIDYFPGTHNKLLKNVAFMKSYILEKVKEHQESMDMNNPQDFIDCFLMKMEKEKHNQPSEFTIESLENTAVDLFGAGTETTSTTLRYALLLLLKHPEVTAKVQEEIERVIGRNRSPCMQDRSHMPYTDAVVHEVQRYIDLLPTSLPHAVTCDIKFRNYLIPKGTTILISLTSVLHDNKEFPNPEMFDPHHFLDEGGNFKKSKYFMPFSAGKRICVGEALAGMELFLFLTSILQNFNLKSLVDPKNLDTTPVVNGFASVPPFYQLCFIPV
Chain of Cytochrome P450 2D6 (P10635 whole entry): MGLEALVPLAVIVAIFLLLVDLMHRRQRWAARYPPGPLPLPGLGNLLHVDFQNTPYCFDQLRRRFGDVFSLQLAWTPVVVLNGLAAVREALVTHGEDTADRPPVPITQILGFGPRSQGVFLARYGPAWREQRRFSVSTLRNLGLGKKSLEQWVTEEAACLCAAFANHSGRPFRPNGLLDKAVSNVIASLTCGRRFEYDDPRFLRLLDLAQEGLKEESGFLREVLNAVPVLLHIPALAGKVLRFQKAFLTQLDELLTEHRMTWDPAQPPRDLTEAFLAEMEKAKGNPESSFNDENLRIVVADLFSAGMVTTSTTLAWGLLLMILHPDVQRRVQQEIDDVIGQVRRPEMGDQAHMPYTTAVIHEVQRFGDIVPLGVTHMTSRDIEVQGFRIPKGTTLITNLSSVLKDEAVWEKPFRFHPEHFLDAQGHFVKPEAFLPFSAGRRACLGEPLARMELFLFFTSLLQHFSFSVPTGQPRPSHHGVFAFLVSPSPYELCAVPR

Regarding `COC(=O)c1c(NC(=O)C2CC=CCC2C(=O)O)sc(C)c1C` (centres undefined), the IC50 was > 59.6 µM (not active) in [1], 4.32 µM (active) in test [2] and > 73.5 µM (not active) in test [3].

Consider `COc1cc2c(cc1C(F)(F)F)N(C(=O)Nc1cc(F)cc(-c3cccnc3)c1)CC2`, for which the AC50 in [4] is 10 µM (inconclusive); in test [5] it was 1 µM (inconclusive).

Consider `Cc1ccccc1NC(=O)C(=Cc1ccc(C(=O)O)cc1)C(=O)Nc1ccccc1C`, for which the IC50 in [6] was > 25 µM (active). Moreover, the EC50 in test [7] is 29 µM (active); in test [11] it was 5.08 µM (active). Also, the CC50 in [8] is 7.39 µM (active); in test [9], 14.7 µM (active). Also, the AC50 in test [10] was 3.66 µM (active).

Consider `COC(=O)NC(c1ccco1)C(C(C)=O)C(=O)OC` (centres undefined), for which the AC50 was 1 µM (inconclusive) in test [12], 6.31 µM (inconclusive) in test [5] and 3.16 µM (inconclusive) in test [13].
